Measurements published in PubChem BioAssay AID179 (DTP/NCI, 2004).
Several values for one entry are separate records, joined by “and”; a condition that tells them apart may be missing. Identical values can stand only once. Activity calls are given as the source filed them.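 Rule for the calls: active = compounds giving half or more protection of infected cells from virus-caused growth loss, again on retest; inactive = the rest.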 Where a SMILES comes first, the peptide text is derived from it. The star is where a group is joined. Cbz = O=C(OCc1ccccc1)*; Boc = CC(C)(C)OC(=O)*; OBn = c1ccc(CO*)cc1

Test system: CEM cells HIV-1 protection, formazan growth assay
Assay: NCI AIDS Antiviral Assay
Conditions: for IC50: measured here: growth of uninfected CEM cells
Procedure, shortened: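 Protection of CEM cells against HIV-1 measured as cell growth via soluble formazan read-out, with five concentrations tested on both infected and uninfected cells; failure to protect may reflect toxicity.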

Row | SMILES | EC50 | IC50 | outcome
1 | Cc1cn(C2C=CCCC2)c(=O)[nH]c1=O (stereo not drawn) | > 871 µM | > 871 µM | 
2 | O=C1c2ccccc2-c2nnc(-c3ccc(Cl)cc3)cc21 | > 100 µM | > 100 µM | 
3 | C=CCC(CC=O)(C(=O)OCC)C(=O)OCC | > 200 µM | 110 µM | 
4 | CC1=CC2CC(C)=C(CC[C@]3(C)CC[C@H]([C@@H](C)C(=O)O)OO3)C(C)(C)C2CC1 (stereo partly drawn) |  |  | inactive
5 | CC(C)c1ccc(C(c2ccc(OCC(=O)NCCN(C)C)cc2)c2ccc(C(C)C)cc(=O)c2O)c(O)c(=O)c1 |  |  | inactive
6 | O=S1(=O)OCCOS(=O)(=O)C1Cc1nc2ccccc2[nH]1 | > 200 µM | 32.4 µM | 
7 | c1ccc(CNc2nnc(NCc3ccccc3)c3c2ncn3Cc2ccccc2)cc1 |  |  | inactive
8 | CCN(CC)CCCC(C)Nc1cc(-c2ccccc2)nc2cc(OC)ccc12 (stereo not drawn) | > 363 µM | 0.741 µM | 
9 | NCCCN(CCCCN(CCCN)CCCc1ccccc1)CCCc1ccccc1 |  |  | inactive
10 | COC(=O)C(CCCCNC(=O)OCc1ccccc1)NC(=O)C(CCC(=O)OCc1ccccc1)NC(=O)OC(C)(C)C (stereo not drawn) (Boc-Glu(OBn)-Lys(Cbz)-OMe; configuration not given here) | > 200 µM | > 200 µM | 
11 | COC(=O)C(C)(C)C(=O)C(C)(C)P(C)(=O)OC (stereo not drawn) | > 200 µM | > 200 µM | 
12 | BrCc1ccc(CBr)c2c1-c1c(CBr)ccc3ccc(CBr)c-2c13 | > 200 µM | 22.9 µM | 
13 | CC12N=NN(c3ccc([N+](=O)[O-])cc3)C1(O)c1ccccc1C2=O (stereo not drawn) | > 200 µM | > 200 µM | 
14 | O=C1C(c2ccccc2)=C(c2ccccc2)C(c2ccc(-c3ccc(C4=C(c5ccccc5)C(=O)C(c5ccccc5)=C4c4ccccc4)cc3)cc2)=C1c1ccccc1 | > 3.55 µM | > 3.55 µM | 
15 | COc1ccc(C2CC(=O)c3c(O)cc(OC4OC(CO)C(O)C(O)C4OC4OC(C)C(O)C(O)C4O)cc3O2)cc1O (stereo not drawn) | > 200 µM | > 200 µM | 
16 | NC(CO)(CO)CO | > 200 µM | > 200 µM | 
17 | Cc1ccc(/C=C2/Sc3scc(-c4ccccc4)[n+]3C2=O)cc1 | > 200 µM | 47.9 µM | 
18 | CNP(=S)(Oc1cc(Cl)c(Cl)cc1Cl)N1CCN(c2ccc(Cl)cc2)CC1 (stereo not drawn) | > 36.3 µM | 21.4 µM | 
19 | O=C(CC(C(=O)c1cccs1)c1ccc2c(c1)OCO2)c1ccccc1 (stereo not drawn) | > 200 µM | > 200 µM | 
20 | CN1C(=O)c2cnc3ccccc3c2C1(O)c1ccccc1 (stereo not drawn) | > 200 µM | > 200 µM | 
21 | CC(C)CCCC(C)[C@H]1CC[C@@H]2[C@H]3CC[C@H]4C[C@@H](CCC=C(c5cc(Cl)c(OCc6ccc([N+](=O)[O-])cc6)c(C(=O)OCc6ccc([N+](=O)[O-])cc6)c5)c5cc(Cl)c(OCc6ccc([N+](=O)[O-])cc6)c(C(=O)OCc6ccc([N+](=O)[O-])cc6)c5)CC[C@]4(C)[C@@H]3CC[C@]12C (stereo partly drawn) | 23.4 µM | 72.4 µM | 
22 | CCOC(=O)SC1=NC(C)=CC(C)(C)S1 | 53.7 µM | 145 µM | 

Row | SMILES | EC50 | IC50 | outcome
23 | Nn1c(-c2ccccc2Cl)nc2ccccc2c1=O |  |  | inactive
24 | O=C1C=C(Nc2ccc([N+](=O)[O-])cc2)c2ccccc2C1=O | > 6.76 µM | > 6.76 µM | 
25 | Cc1cc(=O)oc2c(CNC(C(=O)O)C(C)O)c(O)ccc12 (stereo not drawn) | > 200 µM | > 200 µM | 
26 | C=CCN(CCN(CC=C)S(=O)(=O)c1ccc(C)cc1)S(=O)(=O)c1ccc(C)cc1 | > 22.4 µM | > 22.4 µM | 
27 | CCC(C)C1(O)OC2CC3(C)OC(=CC3=O)/C(C)=C\C3OC(=O)C1(C)C32 (stereo not drawn) | > 138 µM | 7.59 µM | 
28 | O=c1c2c(oc3ccccc13)-c1ccccc1OC2 | > 200 µM | > 200 µM | 
29 | CNC(=O)C1CCCN1C(=O)C(Cc1cnc[nH]1)NC(=O)C1CCC(=O)N1 (stereo not drawn) | > 200 µM | > 200 µM | 
30 | C=C1c2nc3ccccc3n2C=C(c2ccccc2)N1c1ccccc1 | > 200 µM | 3.98 µM | 
31 | Cc1cc(=O)[nH]c(NNC(C#N)c2cccc(O)c2)n1 (stereo not drawn) | > 347 µM | 123 µM | 
32 | O=C(Nc1cc2c(oc1=O)CCCCCC2)c1ccccc1 | > 200 µM | > 200 µM | 
33 | C[C@@H]1CC[C@]2(C)C3(C)CC[C@]2(OC3=O)[C@@]12CC(c1ccoc1)OC2=O (stereo partly drawn) | > 200 µM | 33.9 µM | 
34 | CC(C)=CCN1CC(C)C(=O)Nc2cc(Cl)ccc21 (stereo not drawn) | > 132 µM | 28.2 µM | 
35 | CC(/C(=N\Nc1ccccc1)c1ccc(O)cc1)C1C(=O)Oc2ccccc21 (stereo not drawn) |  |  | inactive
36 | CCCCCCCCCCCCCCCCOP(=O)(O)OP(=O)(O)OCC1OC(n2ccc(N)nc2=O)C(O)C1O (stereo not drawn) | 174 µM and > 100 µM |  | 
37 | Cc1cn(C2CC(N=[N+]=[N-])C(COC(=O)C3CCC(=O)N3)O2)c(=O)[nH]c1=O (stereo not drawn) |  | 49 µM | active
38 | Cc1ccc2c(c1)C=CC1(O2)N(c2ccccc2)C(=S)OC1(C)C (stereo not drawn) | > 200 µM | 22.4 µM | 
39 | O=C(Cc1ccccc1)NN1C(=O)C(Cl)C1c1cccc([N+](=O)[O-])c1 (stereo not drawn) | > 14.5 µM | 8.71 µM | 
40 | CC1=NNC(=NCCN(C)C)C/C1=C/c1ccccc1Cl |  |  | inactive
41 | Cc1cc(C)c2c(c1N)C(=O)CCO2 |  |  | inactive
42 | O=C1Nc2ccccc2C1(O)Cc1ccccn1 (stereo not drawn) | > 1050 µM | > 1050 µM | 
43 | O=C(NC1C=Nc2ccc(Cl)cc2NC1=O)c1ccc2ccccc2c1 (stereo not drawn) | > 200 µM | > 200 µM | 
44 | COc1ccc(NC(=O)CC(=O)NNC(Sc2ccccc2)c2cc(N=Nc3ccc(Br)cc3)ccc2O)cc1 (stereo not drawn) |  |  | inactive

Row | SMILES | EC50 | IC50 | outcome
45 | O=S1(=O)N2CN3CN(C2)CN1C3 |  |  | inactive
46 | Nc1cc(N)[nH]c(=S)n1 |  |  | inactive
47 | CCN(CC)CCCNCc1cc(Cl)c2cccnc2c1O | > 200 µM | 9.77 µM | 
48 | CC(C)(C)OC(=O)NCCc1cccc2c1oc1c(CCC(=O)O)cccc12 | > 309 µM | 110 µM | 
49 | c1cc(C2=NCCO2)c2ccsc2c1 | > 200 µM | 155 µM | 
50 | O=c1c2cc(-c3ccccc3)cnc2sn1-c1ccc(Br)cc1 | 110 µM | 186 µM | 
51 | Cn1c2ccccc2c2nnc(N/N=C/c3cccs3)nc21 | > 200 µM | > 200 µM | 
52 | CNC(=O)N1CN(c2ccccc2)C2(CCN(CCCC(=O)c3ccc(F)cc3)CC2)C1=O | > 200 µM | 10.5 µM | 
53 | O=C1OCC(Cc2ccc3c(c2)OCO3)[C@H]1Cc1ccc(O)cc1 (stereo partly drawn) | > 200 µM | 66.1 µM | 
54 | O=C1OC(=O)C([Se]c2ccccc2)=C1[Se]c1ccccc1 |  |  | inactive
55 | O=C(c1ccc(F)cc1)c1cccc(C(=O)c2ccc(F)cc2)n1 | > 30.9 µM | > 30.9 µM | 
56 | CCOC(=O)C1C(c2ccc([N+](=O)[O-])cc2)NC(c2ccc([N+](=O)[O-])cc2)C(C(=O)OC)S1(=O)=O (stereo not drawn) | > 3.98 µM | > 3.98 µM | 
57 | CCOP(=O)(OCC)C(Cc1ccccc1)N=C(c1ccccc1)c1ccccc1 (stereo not drawn) | > 200 µM | 10.7 µM | 
58 | Cc1cc(S(=O)(=O)Nc2nc(N)nc(N3N=CCC3C)n2)c(SCC(=O)O)cc1Cl (stereo not drawn) | > 200 µM | > 200 µM | 
59 | C=CC[C@]12CC(=O)OC(C=CC13OCCO3)C2 | > 200 µM | > 200 µM | 
60 | COC(=O)c1ccc(CN2CCc3c([nH]c4ccccc34)C2CO)o1 (stereo not drawn) | > 148 µM | 52.5 µM | 
61 | COc1cc(NS(C)(=O)=O)ccc1Nc1c2ccccc2nc2c1[nH]c1ccc(NC3OC(CO)C(O)C(O)C3O)cc12 (stereo not drawn) | > 0.12 µM | 0.0468 µM | 
62 | CCN(CC)C(=O)c1ccc(O)c(OC)c1 | > 200 µM | > 200 µM | 
63 | O=c1[nH]c(-c2ccc(-c3nc4cc([N+](=O)[O-])ccc4c(=O)[nH]3)cc2)nc2cc([N+](=O)[O-])ccc12 | > 7.94 µM | > 7.94 µM | 
64 | CCOC(=O)C(Cc1ccccc1[N+](=O)[O-])C(=O)OCC | > 200 µM | 102 µM | 
65 | NC(=O)COC(=O)c1c(Cl)nc2sccn12 | > 347 µM | > 347 µM | 
66 | CC(C)CC(NC(=O)C(Cc1ccc(O)cc1)NC(=O)C(CO)NC(=O)C(N)CCC(N)=O)C(=O)NCC(=O)O (stereo not drawn) (H-QSYLG-OH; configuration not given here) |  |  | inactive

Row | SMILES | EC50 | IC50 | outcome
67 | COc1ccc(N2C(=O)C3CC4=CC(=O)C[C@H]4[C@H]32)cc1 (stereo partly drawn) | > 200 µM | 151 µM | 
68 | O=C([CH-]C(=O)c1ccccc1)c1ccccc1.[CH3-].[CH3-].[CH3-].[Sn+4] | > 35.5 µM | > 35.5 µM | 
69 | O=C(CSc1nnc(Cc2ccccc2)o1)Nc1ccccc1Cl | > 138 µM | > 138 µM | 
70 | Nc1ccc(Oc2ccc(S(=O)(=O)c3ccc(Oc4ccc(N)cc4N)cc3)cc2)c(N)c1 | > 200 µM | 120 µM | 
71 | CCCCCCCCCCCCC/C=C/[C@@H](OC(=O)c1ccccc1)C(CO)N=[N+]=[N-] (stereo partly drawn) |  |  | inactive
72 | O=C(/C=C/c1cccc(Br)c1)c1ccccc1 | > 13.2 µM | > 13.2 µM | 
73 | COc1ccc(/C=C/c2ccnc3ccccc23)cc1OC | 0.0631 µM | 50.1 µM | 
74 | Nc1nnc2ccccn12 | > 977 µM | > 977 µM | 
75 | Nc1nc2c(ncn2CC2OCC(CO)O2)c(=O)[nH]1 (stereo not drawn) | > 2950 µM | 1820 µM and 275 µM | 
76 | N/C(=N\N=C/c1cc(Cl)cc(Cl)c1O)NO |  |  | inactive
77 | COc1nc(C(=O)O)c(Cl)c(OC)c1Cl | > 513 µM | > 513 µM | 
78 | CCOC(=O)N/N=C(/OCC)c1ccccc1 | > 200 µM | > 200 µM | 
79 | COc1ccc(OC)c(NC(=O)C(=O)C(C(=O)c2ccccc2F)C2OC(=O)c3ccccc32)c1 (stereo not drawn) | > 275 µM | 13.2 µM | 
80 | Cc1ccc(S(=O)(=O)N/N=C2\C=C[C@]3(CC2)C(=O)N(C)c2ccccc23)cc1 | > 200 µM | 102 µM | 
81 | COc1cccc2c1C(c1cccc3ccccc13)OC2=O (stereo not drawn) | > 45.7 µM | 7.94 µM | 
82 | CC(C)CC(NC(=O)OCC[P+](c1ccccc1)(c1ccccc1)c1ccccc1)C(=O)O (stereo not drawn) | > 200 µM | 9.12 µM | 
83 | CCCC(=O)OCC(COC(=O)CCC)OC(=O)CCC | > 200 µM | > 200 µM | 
84 | CCOC(=O)CC(NC(=O)c1ccc(N=NN(C)C)cc1)C(=O)OCC (stereo not drawn) | > 186 µM | > 186 µM | 
85 | COc1cc(/C=C(\C)c2ccc3c(c2)OCO3)cc(OC)c1OC | > 41.7 µM | > 41.7 µM | 
86 | Nc1ccc2c(c1)C(=P(c1ccccc1)(c1ccccc1)c1ccccc1)c1ccccc1-2 | > 200 µM | 10.7 µM | 
87 | Cc1cc2c(oc(=O)c3cc(C)sc32)s1 | > 42.7 µM | > 42.7 µM | 
